This is an account of results in US20240190920A1, “BECLIN 1-TARGETED STAPLED PEPTIDE AND PHARMACEUTICAL COMPOSITION” (Shenzhen Research Institute of the Hong Kong Polytechnic …, priority 2021, published 2024).

Series [1] deals with T1, Beclin 1 coiled coil domain (Homo sapiens, UniProt Q14457).
T1 construct: the coiled coil domain of human Beclin 1 (residues 176-268); thioredoxin-6xHis fusion tag with HRV 3C protease cleavage site; made in house; host or cells: Escherichia coli BL21(DE3)
Put plainly: Isothermal titration calorimetry (ITC) binding affinity. The following applies: 25° C., pH 7.4, Tat-fused peptide, read-out: Kd. How it is done:
The expression and purification of Beclin 1 coiled coil domain is performed as described previously. Briefly, the coiled coil domain of human Beclin 1 (residues 176-268) is cloned into the modified pET32a vector containing the human rhinovirus (HRV) 3C protease cleavage site and thioredoxin-6×His fusion tag. Recombinant protein for the Beclin1 coiled oil domain is expressed in Escherichia coli BL21(DE3) and purified by Ni^2+-NTA affinity chromatography (His Trap HP, GE Healthcare) first and followed by size-exclusion chromatography (Superdex 75, GE Healthcare).
ITC assays are carried out by MicroCal PEAQ-ITC Automated (Marvern) at 25° C. All designed peptides and purified protein for the Beclin 1 coiled coil domain are dialyzed into the buffer containing 50 mM Tris, 150 mM NaCl at pH 7.4. For each titration assay, the injection syringe is loaded with 40 μl of peptide and the cell is loaded with Beclin 1 coiled coil domain protein. Typically, titrations consist of 19 injections, and each injection is performed at a time interval of 180 seconds to ensure that the titration peak returns to the baseline. The titration data are analyzed using the MicroCal PEAQ-ITC Analysis software and fitted by the one-site binding model.

Series [2] relates to HEK293T cells. Nature of the series: Trypan blue exclusion cytotoxicity assay in HEK293T cells. The class given is cell-based. As for the experimental part: FIG. 7 is a schematic diagram of the result of evaluating the cytotoxicity of the newly designed stapled peptide on HEK293T cells by the trypan blue exclusion assay.
Cell viability is measured by trypan blue exclusion assay following the standard protocol provided by the manufacturer. SKBR3 cells are seeded on 96-well plates containing complete medium at a density of 1×10^4 cells per well. Upon cell attachment, cells are treated with the indicated stapled peptide or vehicle control for 24 hours. Afterwards, the number of trypan blue positive staining cells and the number of total cells are manually counted under a light microscope (Olympus). Cell viability is calculated as the number of viable cells divided by the total number of cells. All experiments are repeated in triplicate and the mean is calculated.

In series [3] the test system is HEK293T cells. Put plainly: Western blot of autophagy markers LC3 and p62. The class given is cell-based. As for the experimental part:
FIG. 8 is a schematic diagram showing that the peptides based on the i7-01s scaffold are effective inducers of autophagy. (a) Western blot to assess the p62 level and LC3 lipidation profile in HEK293T cells after treatment with 10- and 20-μM i7-01s-31 for 3 hours, in the presence or absence of CQ. (b)&(c) Quantification of LC3 lipidation profiles from the Western blot data. (d)&(e) Quantification of p62 levels from the Western blot data from (a).
The impact of these two peptides on cellular autophagic activity is examined by detecting the protein levels of LC3 and p62, two molecular markers of autophagy. During the autophagy process, cytosolic protein LC3 is converted from its apo form (LC3-I) to lipidated form (LC3-II) for accumulation on autophagosomes. Thus, an increase in LC3-II level is regarded as a reliable indicator of elevated cellular autophagic activity. Similarly, p62 is an autophagy receptor that is degraded in the lysosome together with autophagic substrates. A decrease in p62 level is also commonly used as an indicator for higher autophagic activity, although some studies have shown that p62 is not as sensitive as LC3-II.
Whole cell lysates are extracted using Laemmli sample buffer (62.5 mM Tris-HCl, pH 6.8, 2% SDS, 25% glycerol, 5% β-mercaptoethanol) supplemented with EDTA-free protease inhibitor cocktail (Roche). Protein concentration is determined using a standard Bradford assay before immunoblotting. Protein samples are separated by SDS-PAGE, transferred to a PVDF membrane (Millipore, USA), and incubated with the primary antibodies and HRP-conjugated secondary antibodies. Protein bands are visualized using ECL reagents. β-actin is used as the internal reference protein to control the loading amount of SDS-PAGE.

Series [4] deals with HER2. Put plainly: EGF-induced endolysosomal degradation of HER2, Western blot. The class given is cell-based. The following applies: SKBR3, 2 μM. How it is done:
(§1) FIG. 9 is a schematic diagram of the result showing peptides based on (I7-01s) scaffold are potent inducers of endolysosomal trafficking. (a-c) Western blot to assess the HER2 and EGFR levels in SKBR3 cells. Cells are starved overnight and are treated with 200 ng/ml EGF respectively with vehicle control (a), 2 μM Tat-SP4 (b), 2 μM i7-01s-31 (c). (d & e) Time-dependent plots to quantify HER2 and EGFR degradation profiles after three independent experiments. The levels of HER2 (d) and EGFR (e) are normalized to the β-actin level at different time points and then further normalized to time 0, when the ligand EGF is added. Data are presented as mean±SEM (n=3).
In some embodiments, the Beclin 1-targeting stapled peptide provided by the present disclosure can effectively promote endolysosomal trafficking. As a scaffolding member of the PI3KC3 complex, Beclin 1 is essential for multiple PI3KC3-dependent processes including autophagy, endolysosomal trafficking and phagocytosis. To assess the efficacy of the newly designed peptides on the endolysosomal trafficking process, the ligand-induced endolysosomal degradation of cell surface receptors HER2 and EGFR is characterized by western blotting using SKBR3 breast cancer cell line that over-expresses both EGFR and HER2. […] In contrast, i7-01s-31 treatment at 2 μM results in significant reduction of HER2 level, with about 50% decrease at 15 hours post EGF stimulation, and about 70% decrease at 24 hours (as shown in FIGS. 9c & 9d). i7-01s-31 treatment also strongly promotes EGFR degradation, with approximately 60% reduction at 15 hours post EGF stimulation (as shown in FIGS. 9c & 9e).
Whole cell lysates are extracted using Laemmli sample buffer (62.5 mM Tris-HCl, pH 6.8, 2% SDS, 25% glycerol, 5% β-mercaptoethanol) supplemented with EDTA-free protease inhibitor cocktail (Roche). Protein concentration is determined using a standard Bradford assay before immunoblotting. Protein samples are separated by SDS-PAGE, transferred to a PVDF membrane (Millipore, USA), and incubated with the primary antibodies and HRP-conjugated secondary antibodies. […]

Series [5] concerns EGFR. Put plainly: EGF-induced endolysosomal degradation of EGFR, Western blot. Type of series: cell-based. The following applies: SKBR3, 2 μM, 15 hours post EGF stimulation. How it is done: as §1
In some embodiments, the Beclin 1-targeting stapled peptide provided by the present disclosure can effectively promote endolysosomal trafficking. As a scaffolding member of the PI3KC3 complex, Beclin 1 is essential for multiple PI3KC3-dependent processes including autophagy, endolysosomal trafficking and phagocytosis. […]
Whole cell lysates are extracted using Laemmli sample buffer (62.5 mM Tris-HCl, pH 6.8, 2% SDS, 25% glycerol, 5% β-mercaptoethanol) supplemented with EDTA-free protease inhibitor cocktail (Roche). Protein concentration is determined using a standard Bradford assay before immunoblotting. […]

In series [6] the test system is SKBR3 cells. Nature of the series: Trypan blue exclusion assay, IC50 in SKBR3 cells. Type of series: cell-based. Conditions: SKBR3, 24h. As for the experimental part: (§2) (a) Trypan blue exclusion assay to assess the cytotoxicity IC50 (half maximal inhibitory concentration) of the indicated peptides in SKBR3 cells. Cells are treated with various concentrations of the indicated peptides for 24h. Cell numbers are manually counted by the trypan blue exclusion assay using a hemocytometer. Data are presented as mean±SD from three independent experiments. (b-d) Cell proliferation assay is performed over a time span of five days in SKBR3 cells after treatment with the indicated peptides. Cells are treated with the indicated peptides at day 0 and the cell number is calculated at the given time points. The assay is performed in 96 well plates with three independent measurements. Tat-SC4 is a control peptide with scrambled Tat-SP4 sequence but without the hydrocarbon staple.
Cell viability is measured by trypan blue exclusion assay following the standard protocol provided by the manufacturer. SKBR3 cells are seeded on 96-well plates containing complete medium at a density of 1×10^4 cells per well. […] Afterwards, the number of trypan blue positive staining cells and the number of total cells are manually counted under a light microscope (Olympus). Cell viability is calculated as the number of viable cells divided by the total number of cells. All experiments are repeated in triplicate and the mean is calculated.

Series [7] relates to SKBR3 cells. Put plainly: Five-day cell proliferation assay. The class given is cell-based. The following applies: SKBR3, five days, 10 μM. As for the experimental part: as §2
The test system of series [8] is SKBR3 cells. Put plainly: Flow cytometry with Annexin V FITC-PI staining. The class given is cell-based. As for the experimental part: FIG. 12 is a schematic diagram of the result showing the peptides based on strategy (i7-01s) scaffold induce cell death with necrotic features. Flow cytometry analysis with Annexin V FITC-PI staining is performed in SKBR3 cells after treatment of the indicated peptides for 24 hours.
The degree of cellular apoptosis and necrosis is assessed by flow cytometry following the standard protocol provided by the manufacturer. Briefly, SKBR3 cells after the indicated peptide treatment are harvested by trypsin, labelled with Annexin V and PI (Invitrogen), subjected to flow cytometer system (BD Accuri C6), and analyzed by BD Accuri C6 software. The cell populations can be distinguished by the staining of Annexin V/PI. Typically, cellular population in the lower left quadrant is live cells (Annexin V^−, PI^−), the lower right quadrant represents early apoptotic cells (Annexin V^+, PI^−), the upper right quadrant represents late apoptotic cells (Annexin V^+, PI^+), the upper left quadrant represents necrotic cells (Annexin V^−, PI^+).

The structures appear in SMILES notation. Entries after “also recorded” stand apart in the source; their conditions may differ. Bridge positions count the residues as written; N and C are the ends. Square brackets hold non-standard residues; d marks the D form. Peptide text beside a SMILES is read from it. R8 = C=CCCCCCC[C@@](C)(N)C(=O)O; S5 = C=CCCC[C@](C)(N)C(=O)O

T1 sequence (Q14457 176-268): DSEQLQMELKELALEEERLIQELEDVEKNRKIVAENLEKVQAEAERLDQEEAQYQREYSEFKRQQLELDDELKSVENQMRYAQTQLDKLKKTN

For `CC[C@H](C)[C@@H]1NC(=O)[C@H](C(C)C)NC(=O)[C@H](CC(=O)O)NC(=O)[C@H](C(C)C)NC(=O)[C@H](CC(C)C)NC(=O)[C@](C)(NC(=O)[C@H](CC(N)=O)NC(=O)[C@H](Cc2ccccc2)NC(=O)[C@H](CC(C)C)NC(=O)[C@@H](NC(=O)[C@H](CCCNC(=N)N)NC(=O)[C@H](CCCNC(=N)N)NC(=O)[C@H](CCCNC(=N)N)NC(=O)[C@H](CCC(N)=O)NC(=O)[C@H](CCCNC(=N)N)NC(=O)[C@H](CCCNC(=N)N)NC(=O)[C@H](CCCCN)NC(=O)[C@H](CCCCN)NC(=O)[C@H](CCCNC(=N)N)NC(=O)CNC(=O)[C@H](Cc2ccc(O)cc2)NC(C)=O)C(C)C)CCCCCCC=CCCC[C@@](C)(C(=O)N[C@@H](CCCNC(=N)N)C(=O)N[C@@H](CCCCN)C(=O)N[C@H](C(N)=O)C(C)C)NC(=O)[C@H](CCCCN)NC1=O` [i7-01s-31] (Ac-YGRKKRRQRRRVLFN[R8]LVDVIK[S5]RKV-NH2; staple 16-23), the Kd in series [1] worked out at 0.33 ± 0.28 µM. Besides, the cell viability entry in series [2] (5 μM, 24 hours) is “little impact on cell viability”. Also, the cytotoxicity entry in series [2] (20 μM, 24 h) is “negligible cytotoxicity”. Also, in series [3], the “autophagy induction compared with Tat-SP4” value is “comparable efficacy”. Moreover, the LC3-II levels entry is “noticeable albeit small increase” in series [3] (10 and 20 μM, 3 hours, absence of CQ); “significantly stronger” in series [3] (10 and 20 μM, 3 hours, presence of chloroquine (CQ)). The “protein level of p62” value in series [3] (10 and 20 μM, 3 hours, presence or absence of CQ) is “does not show any noticeable change”. Further, the figures for the “decrease of HER2 level” value in series [4] (15 hours post EGF stimulation) and in series [4] (24 hours post EGF stimulation) were “about 50%” and “about 70%”, respectively. For the same molecule, the “reduction of EGFR” value in series [5] was “approximately 60%”. In series [6], this molecule showed an IC50 of 7.12 µM. For the same molecule, in series [7], the “effect on cell proliferation” value was “completely abolish cell proliferation”. In series [8] (SKBR3, 10 μM, 24 hours), the PI positive cells entry was “approximately 30%”. The “change of Annexin V positive cells (apoptosis)” value in series [8] (SKBR3, 24 hours) was “without notable changes; also recorded: no increase”. In addition, the “change of PI positive staining cells (dead cells)” value in series [8] (SKBR3, 24 hours) is on record as “significantly increased; also recorded: significant increase”.
